Legend:
MOG-induced EAE = assay: Summary of studies of GA-blocking + laquinimod in MOG-induced EAE (Examples 2.1-2.3); type: in vivo, mice; conditions: GA-blocking alone
Method: FIG. 4 is a graphical representation summarizing experimental results from Examples 2.1-2.3.
At higher doses (5 and 25 mg/kg) laquinimod provides an additive effect over GA-blocking as summarized in Table 9 and shown on FIGS. 4A and 4B.

[1] = test system: relapsing remitting (RR) EAE; assay: Relapsing remitting EAE in Biozzi mice, combination study (Example 2.6); type: in vivo
Method: EAE is an animal model for multiple sclerosis. In the Biozzi AB/H EAE mice, a RR EAE can be induced. […] Re-injection of an encephalitogen can induce a chronic relapsing disease that enables measuring long-term effects on subsequent relapses rather than immediate effects.
The EAE induction was performed according to procedure “RR-EAE.Biozzi” The Biozzi mice were weighed and injected subcutaneously and re-injected one week later with encephalitogenic agent (MSCH emulsion). 0.3 mL of the encephalitogenic agent containing 1.0 mg of MSCH and 200.0 μg of MT was injected subcutaneously, at two sites in the right flank of each mouse (0.15 mL at each site). The second injection was done in a similar manner in the left flank, one week later.
On the day of first injection of encephalotigen, the Biozzi mice were randomly allocated to eight treatment groups as follows: Tables 16-17.
The 5.0 mg/mL laquinimod stock solution was diluted 1:5 to yield 1 mg/mL.
The mice in all the groups were administered daily by oral gavage a volume dose level of […] of the respective test formulations from the day the mice are allocated to the treatment groups (first injection of encephalitogen) for 59 consecutive days until the termination of the study.
The mice were examined and scored according to the following table, until the termination of the study (60 days after initiation of treatment).
The activity of the test articles for the first and second phase of RR EAE was calculated by comparing the incidence of disease, mortality, onset and duration of disease, group mean score and mean maximal score to the control group. Calculations were carried separately and together for the first and the second relapse.

MSCH-induced EAE = MSCH-induced EAE in CSJL/F1 mice (Example 2.8); type: in vivo
Method: Disease was induced in all mice by the injection of the encephalitogenic emulsion (MSCH/CFA). The test articles and the vehicle were administered orally twice a day.
For groups 1 and 3 to 6, 360.0 mg MSCH was suspended in 3.0 ml PBS to yield 120 mg/ml MSCH suspension.
0.05 ml was injected into the left foot-pad of each mouse. The concentration of MSCH in emulsion in all groups was 60 mg/mL. The dose of the MSCH in all the groups was 3.0 mg/0.05 ml/mouse. The concentration of MT in emulsion in all groups was 0.25 mg/mL. The dose of the MT in all the groups was 0.0125 mg/0.05 ml/mouse.
36 μL Pertussis toxin (200 μg/ml) was added to 44.964 ml PBS to yield 160 ng/ml. The pertussis toxin was administered intravenous on the day of encephalitogen injection and 48 hours later (80.0 ng/0.5 ml/mouse).
Solutions at concentration of 0.001, 0.01, 0.03 and 0.1 mg/mL laquinimod were prepared in water for dose levels of 0.01, 0.1, 0.3 and 1.0 mg/kg respectively. The test formulations were stored at 2 to 8° C. until use in amber colored bottles.
The mice were administered with the respective dose levels of laquinimod at volume dose level of 200 μL/mouse. The test formulations were vortexed before dispensing in syringe.
The different dose levels laquinimod were administered to the respective groups once a day.
Scoring of EAE clinical signs was initiated from the 10th day post-EAE induction and was continued daily until Day 23. The clinical signs were recorded on observation cards according to a grading system described in the table 23 above. Animals with score 4 for more than three days were given score 5 and sacrificed for humane reasons. For calculation purposes, the score (5) of animals that are sacrificed or died were carried forward.
The calculations are as shown in Example 2.4.

[2] = first and second attacks together, GA 12.5 mg/kg oral daily 59 d
[3] = first attack, GA 12.5 mg/kg oral daily
[4] = second attack, GA 12.5 mg/kg oral daily
[5] = GA 0.5 mg/kg (sub optimal) with encephalitogen
[6] = GA blocking 0.5 mg/kg (sub-optimal dose), with encephalitogen

L-glutamic acid polymer with L-alanine, L-lysine and L-tyrosine, acetate (salt) [GA]
Mean percent inhibition, Examples 2.1-2.3 summarized (MOG-induced EAE): 67.6%
GMS % inhibition [1, 2]: 21.7%
GMS value [1, 2]: 1.8
Incidence [1, 2]: 12/14
Incidence % inhibition [1, 2]: 7.7%
MMS % inhibition [1, 2]: 0.0%
MMS value [1, 2]: 3.6
Mean Duration [1, 2]: 23.8 ± 16.2 days
% Inhibition 1 (incidence) [1, 3]: 7.7%
IMS % Inhibition 3 [1, 3]: 15.6%
IMS value [1, 3]: 58.6 ± 70.5
Incidence [1, 3]: 12/14
MMS % Inhibition 2 [1, 3]: 2.8%
MMS value [1, 3]: 3.5 ± 1.6
Mean Duration [1, 3]: 15.7 ± 14.0 days
% Inhibition 1 (incidence) [1, 4]: 31.2%
IMS % Inhibition 3 [1, 4]: 35.5%
IMS value [1, 4]: 30.5 ± 33.0
Incidence [1, 4]: 6/12
MMS % Inhibition 2 [1, 4]: 31.0%
MMS value [1, 4]: 2.0 ± 1.7
Mean Duration [1, 4]: 9.4 ± 10.5 days
Incidence (MSCH-induced EAE; [5]): 4/11
MMS (MSCH-induced EAE; [5]): 1.1±15
activity according to GMS (MSCH-induced EAE; [5]): 79.4%
% Inhibition 1 (according to Incidence) (MSCH-induced EAE; [6]): 60.0%
% Inhibition 2 (according to MMS) (MSCH-induced EAE; [6]): 75.5%
% Inhibition 3 (according to GMS) (MSCH-induced EAE; [6]): 79.4%( )
GMS value (Group Mean Score) (MSCH-induced EAE; [6]): 0.7 ± 1.0
Incidence (MSCH-induced EAE; [6]): 4/11
MMS value (Mean Maximal Score) (MSCH-induced EAE; [6]): 1.1 ± 1.5
Mean Duration (MSCH-induced EAE; [6]): 3.6 days
Onset (MSCH-induced EAE; [6]): 20.4 days
